Results as given in paper PMC12992715, “Dual interference with host neuropeptide signaling allows parasitoid wasp to hijack host sugar metabolism” (The EMBO Journal, 2025).
No end group written: not given here.

How the values were obtained:
PxsNPFR [1] = assay: Intracellular Ca2+ mobilisation (Fura-2/AM) in PxsNPFR-expressing HEK293 cells; format: cell-based, Plutella xylostella; details: 2.5 μM Fura-2/AM, excitation 340/380 nm, 37 °C, result in words
Experimental: To establish a stable HEK293/PxsNPFR cell line, the pcDNA 3.1^(+)/PxsNPFR plasmid was transfected into the HEK293 cells using Lipofectamine 3000 (Invitrogen). Two days later, 800 μg/ml G418 (Sangon Biotech) was added to the culture medium to select cells that stably expressed the receptor. After three weeks, resistant clones were trypsinised in cloning cylinders and transferred to 12-well plastic plates for expansion.
To measure the intracellular calcium flux, the transfected cells HEK293/PxsNPFR were harvested with PBS solution containing 0.02% EDTA, rinsed twice with PBS, and resuspended in Hanks’ balanced salt solution containing 0.025% BSA. Cells were then loaded with 2.5 μM Fura-2/AM (Dojindo) for 30 min at 37 °C and washed twice in Hanks’ balanced saline solution. These cells were stimulated with the indicated concentrations of synthetic sNPF, and Hanks’ solution was used as a negative control. The calcium flux was measured using excitation at 340 nm and 380 nm on a SpectraMax iD5 Multi-Mode Microplate Reader (Molecular Devices) at 37 °C.

PxHK mRNA in the midgut = assay: Ex vivo midgut incubation with sNPF and signalling inhibitors, PxHK mRNA; format: cell-based, Plutella xylostella; details: Fig 6F
Experimental: The in vitro incubations of fat body or midgut were performed as previously described with minor modifications (Cheng et al, [2022]). The fat bodies and midguts from non-parasitised middle 4th instar P. xylostella larvae were collected in 0.5 mL of PBS. The collected tissues were then preincubated in culture dishes containing TNM-FH medium (HyClone) for 30 min. sNPF peptides or inhibitors were administered to isolated fat body and midgut in vitro using a modified method from a previous study (Oh et al, [2019]). 1 mM stock solution of pertussis toxin (PTX, Tocris Bioscience) or U73122 (MedChemExpress) was dissolved in DMSO (Sigma-Aldrich) and kept at −80 °C. 0.1 ng/µl PTX or 10 µM U73122 were then mixed with 20 µM sNPF-contained TNM-FH medium. Preincubated tissues were incubated in these mixtures at 25 °C for 1 h, followed by total RNA isolation and qPCR.

[2] = test system: P. xylostella fat body and midgut transcriptome; assay: RNA sequencing of fat body and midgut after injection of sPxsNPF-1 or sCvsNPF; format: in vivo, Plutella xylostella
Experimental: The fat body and midgut of the 4 M instar P. xylostella larvae were dissected under the microscope in PBS on ice. Total RNA was isolated using an RNA isolater Total RNA Extraction Reagent (Vazyme) according to the manufacturer’s instructions. The quality and the concentration of the isolated total RNA were estimated by electrophoresis and a NanoDrop 2000. The transcriptome sequencing was performed at Annoroad Gene Technology. cDNA libraries for transcriptome sequencing made from the total RNA were prepared using the NEBNext Ultra RNA Library Prep Kit for Illumina in conjunction with the NEBNext Poly (A) mRNA Magnetic Isolation Module. Libraries were validated and quantified before being pooled and sequenced on an Illumina HiSeq 2000 (Illumina) sequencer with a 150 bp paired-end protocol. The raw reads were filtered by removing adaptor sequences, empty reads and low-quality sequences (reads with unknown sequences ‘N’). Sequences were de novo assembled using Trinity on a Galaxy Portal, and both ends were sequenced. The fragments per kilobase of transcript per million mapped reads (FPKM) method was used to analyse the expression profiles of all unigenes in different samples. Read counts were input into DESeq2 to calculate differential gene expression and statistical significance. […]

PxsNPFR [3] = assay: qPCR of PxHK / PxGP upon synthetic sNPF with dsPxsNPFR treatment; format: in vivo, Plutella xylostella; details: non-parasitised larvae, 3L, 0.5 ng sPxsNPF-1 + dsPxsNPFR; n = 6-7; words
Excerpt: To analyse gene expression in different tissues, P. xylostella larvae were dissected under the microscope, followed by the collection of the silk gland, fat body, midgut, haemocytes and central nervous system (CNS, brain and ventral nerve cord). Haemocytes were collected on clean Parafilm membranes with capillaries by bleeding the larvae from a cut proleg. To explore gene expression at different instars of parasitised or non-parasitised larvae, non-parasitised larva was isolated individually using RNA-easy Isolation Reagent (Vazyme). Parasitoid larvae were removed before parasitised hosts were isolated. As for the measurement of other experiments, per larva with different treatments was isolated individually using RNA-easy Isolation Reagent according to the manufacturer’s instructions.
The quality and concentrations of total RNAs were estimated by electrophoresis and NanoDrop 2000 spectrophotometer (Thermo Fisher Scientific). […] Relative gene expression levels were calculated using the 2^−ΔΔCt method. […]
DNA fragments of ∼500 bp in size were amplified by PCR. […] Synthetic dsRNA was confirmed by an agarose gel, and the concentration was determined by NanoDrop2000 spectrophotometer (Thermo Scientific). About 500 ng of dsRNA was injected into P. xylostella larvae 72 h post-parasitisation, and the RNAi efficiency was detected 48 h post-injection by qPCR. […]

SVRSPSRRLRF-NH2 [sPxsNPF-1, synthetic short neuropeptide F-1 of Plutella xylostella]
intracellular Ca2+ mobilisation (PxsNPFR [1]): elicited a rapid and transient increase in intracellular Ca^2+ mobilisation
PxHK relative expression (PxHK mRNA in the midgut; sPxsNPF-1+PTX, Average of 5 replicates, SD 0.30, control DMSO average 1.00): 1.96
PxHK relative expression (PxHK mRNA in the midgut; sPxsNPF-1+PTX, replicate 1): 2.33
PxHK relative expression (PxHK mRNA in the midgut; sPxsNPF-1+PTX, replicate 2): 1.83
PxHK relative expression (PxHK mRNA in the midgut; sPxsNPF-1+PTX, replicate 3): 1.61
PxHK relative expression (PxHK mRNA in the midgut; sPxsNPF-1+PTX, replicate 4): 1.83
PxHK relative expression (PxHK mRNA in the midgut; sPxsNPF-1+PTX, replicate 5): 2.18
PxHK relative expression (PxHK mRNA in the midgut; sPxsNPF-1+U73122, Average of 5 replicates, SD 0.13, control DMSO average 1.00): 0.98
PxHK relative expression (PxHK mRNA in the midgut; sPxsNPF-1+U73122, replicate 1): 1.03
PxHK relative expression (PxHK mRNA in the midgut; sPxsNPF-1+U73122, replicate 2): 0.92
PxHK relative expression (PxHK mRNA in the midgut; sPxsNPF-1+U73122, replicate 3): 1.06
PxHK relative expression (PxHK mRNA in the midgut; sPxsNPF-1+U73122, replicate 4): 0.79
PxHK relative expression (PxHK mRNA in the midgut; sPxsNPF-1+U73122, replicate 5): 1.11
PxHK relative expression (PxHK mRNA in the midgut; sPxsNPF-1 without inhibitor, Average of 5 replicates, SD 0.18, control DMSO average 1.00): 1.73
PxHK relative expression (PxHK mRNA in the midgut; sPxsNPF-1 without inhibitor, replicate 1): 1.68
PxHK relative expression (PxHK mRNA in the midgut; sPxsNPF-1 without inhibitor, replicate 2): 1.93
PxHK relative expression (PxHK mRNA in the midgut; sPxsNPF-1 without inhibitor, replicate 3): 1.52
PxHK relative expression (PxHK mRNA in the midgut; sPxsNPF-1 without inhibitor, replicate 4): 1.60
PxHK relative expression (PxHK mRNA in the midgut; sPxsNPF-1 without inhibitor, replicate 5): 1.89
DEGs common to sPxsNPF-1 and sCvsNPF sets ([2]; 157 transcripts in both sets): 3.6%
expression of genes involved in Gq activation (PLC, IP3) ([2]; RNA-seq after injection, words): significantly upregulated after sPxsNPF-1 injection
sNPF-induced PxHK expression after PxsNPFR knockdown (PxsNPFR [3]): abolished following dsPxsNPFR treatment
